Laboratory results as given in paper PMC4745082, “A Novel PET Imaging Probe for the Detection and Monitoring of Translocator Protein 18 kDa Expression in Pathological Disorders” (Scientific Reports, 2016).

Legend:
[1] = type: in vitro ADME; settings: 2 h
Experimental: The in vitro stability of [^18F]CB251 was assayed by monitoring both the radio-TLC and the radio-HPLC profiles to determine its radiochemical purity. To assess the in vitro serum stability, 100 μL of [^18F]CB251 in 10% EtOH/saline was incubated with 0.5 mL of human serum from a healthy volunteer for 2 h at 37 °C and the solution was analysed at 0, 10, 30, 60 and 120 min by a radio-TLC scanner using MeOH-CH2Cl2 (5:95) as the developing solvent. Separately, 100 μL of [^18F]CB251 in 10% EtOH/saline was also incubated with 0.9 mL of human serum from a healthy volunteer for 2 h at 37 °C. Aliquots (200 μL) were taken from the sample at time points of 0, 30, 60 and 120 min and mixed with absolute acetonitrile (200 μL). The mixture was centrifuged (3500 rpm, 5 min) to precipitate out serum proteins. The resulting supernatant including the authentic CB251 (1.0 mg/2.0 mL of CH3CN, 20 μL) was filtered through a 0.45 μm GH Polypro (GHP) membrane Disc filter before HPLC analysis to determine the fraction of intact radiotracer. Samples were analysed by HPLC (Waters, Xterra RP-18, 5 μm, 4.6 × 250 mm; eluant: 60% CH3CN/H2O; flow rate: 1 mL/min; guard column 10 × 10 mm).

[2] = test system: human glioblastoma U87-MG xenografts; design: species or system mice; settings: mouse, in vivo
Experimental: Another in vivo test of [^18F]CB251 was performed in U87-MG-bearing mice using a microPET scanner (Fig. 6). Tumour cells were engrafted on the left thigh of Balb/c nude mice. [^18F]CB251 was administered intravenously after the tumour volume reached approximately 364.5 ± 32.2 mm^3 and a dynamic PET scan was performed. […] In particular, [^18F]CB251 provided a tumour accumulation (1.96 ± 0.11%ID/g at 1 h post injection) and a visible image of the tumour in summed PET images.
U87-MG cells (ATCC) were cultured in Dulbecco’s modified Eagle’s medium supplemented with 4 mM L-glutamine, 4,500 mg/L glucose, 1 mM sodium pyruvate, […] sodium bicarbonate, 10% FBS and antibiotic-antimycotic (Gibco, Grand Island, NY, USA) at 37 °C in a humidified atmosphere of 5% CO2. U87-MG cells were cultured for 2–3 days without changing the medium and were harvested with trypsin-EDTA in PBS. Male Balb/c nu/nu mice, obtained at 6–7 weeks of age (Orient Bio Inc., Seongnam, Korea), were subcutaneously injected in the right shoulder with 5 × 10^6 U87-MG cells suspended in 100 μL of 100 mM PBS (pH 7.4). Animal protocols were approved by the Seoul National University Bundang Hospital Animal Care and Use Committee and the methods were carried out in accordance with the approved guidelines. We also performed calliper measurements of the longest perpendicular tumour diameters.
Five LPS-induced neuroinflammation rats (219.2 ± 14.1 g) were used for brain PET imaging at 4 days post-LPS injection. Before the scan, the rats were anesthetized with 2% isoflurane in a 7:3 mixture of N2/O2. PET imaging of the rat brain was performed in a dedicated small animal PET/CT (NanoPET/CT, Bioscan, Inc., U.S.A.) with a 10-cm axial field-of-view (FOV) and a 12-cm transaxial FOV. […] Regional uptake of radioactivity was decay-corrected to the injection time and was expressed as the standardized uptake value (SUV), which was normalized to the injected radioactivity and animal body weight. […]

[3] = Log D determination (n-octanol / sodium phosphate buffer pH 7.4); type: physicochemical; settings: n-octanol / sodium phosphate buffer 0.15 M pH 7.4, measured four times
Experimental: After vortexing for 1 min, each tube was then stored for 3 min at room temperature and the phases were separated. Samples of each phase (100 μL) were counted for radioactivity. Log D is expressed as the logarithm of the ratio of the counts from n-octanol versus that of the sodium phosphate buffer.

CCCN(CCC)C(=O)Cc1c(-c2ccc(OCC[18F])cc2)nc2c(Cl)cc(Cl)cn12 [[^18F]CB251, 2-(2-(4-(2-[^18F]fluoroethoxy)phenyl)-6,8-dichloroimidazo[1,2-a]pyridin-3-yl)-N,N-dipropylacetamide]
radioactive parent remaining in human serum [1]: greater than 99%
tumour uptake ([2]; male, Balb/c nu/nu, 1 h): 1.96 ± 0.11 %ID/g
bladder and muscle uptake [2]: low
kidney uptake [2]: high
logD [3]: 3 ± 0.03
